For one test, the system named is P388. Description: Growth inhibition of mouse P388 cells. The format is functional. As to conditions: read-out: ED50 (the source's name).
In another test the test system is M5076. Kind of test: Growth inhibition of mouse M5076 cells. The test is classed as functional, cell-based.

Molecules are shown by their SMILES. ≈ marks a conversion by molar mass, not a printed value. Calls of active or inactive are those of the source. The calls are words filed in the database; no cut-off is given here.

Consider `O=C1N[C@H]2[C@H](O)[C@H](O)[C@@H](O)[C@H](O)[C@@H]2c2cc3c(c(O)c21)OCO3` [PANCRATISTATIN], for which the EC50 with P388 stood at 0.01 µg/mL (≈ 0.0307 µM). Also, in the test with M5076, the result was Active.

Values taken from ChEMBL document CHEMBL1147379, “Antineoplastic agents, 256. Cell growth inhibitory isocarbostyrils from Hymenocallis” (1993).
